Reference: patent US20220332839A1, “USE OF PRG4 TO TREAT CANCER” (Lubris LLC, priority 2019, published 2022)

What was measured:
[1] = system: 3TP-Lux reporter; assay: 3TP-Lux luciferase reporter assay; format: cell-based, human; conditions: 100 pM TGFβ
Method: MDA-MB-231 cells were seeded in 24-well plates at approximately 6×10^4 cells/well one day prior to transfections. Cells were co-transfected with the PAI1-promoter-driven firefly luciferase Reporter (3TP-Lux) and the CMV-Renilla luciferase control reporter constructs. 18 h post transfection, cells were serum-starved (0.2% FBS containing DMEM) for 4 h and then incubated in fresh low-serum (0.2% FBS containing DMEM) containing media in the absence or presence of 100 pM TGFβ, 100 μg/mL rhPRG4 alone or together and left overnight. Lysates were prepared and analyzed for luciferase activity using a commercially available dual luciferase assay kit (Promega, Canada). Arbitrary luciferase activity (relative light units) values were normalized to Renilla luciferase activity to account for variations in transfection efficiency. For each transfection, percent increase of PAI1 promoter driven luciferase reporter gene expression was also determined and expressed relative to luciferase activity of the respective basal condition lysates. Each experimental condition was carried out in triplicate.

[2] = system: HAS2; assay: HAS2 protein abundance in MDA-MB-231 cells (immunoblot); format: cell-based, human; conditions: 100 pM TGFβ; 100 μg/mL rhPRG4 in the absence or presence of TGFβ
Method: Cells were washed with PBS to remove all growth media. Appropriate volume of TNTE lysis buffer (50 mM Tris, 150 mM NaCl, 1 mM EDTA, 0.5% [v/v] Triton-X-100) containing protease and phosphatase inhibitors, was added to the cell monolayer and incubated at 4° C. under vigorous shaking for 20 minutes. Lysates were then collected in microcentrifuge tubes and centrifuged at 13,000 g for 10 minutes at 4° C. 5 μL of the lysate were subjected to protein concentration determination using Bradford-based protein assays (Bio-Rad Laboratories, Canada). Lysates were boiled for 3 minutes at 95° C. in dithiothreitol (DTT)-containing Laemmli sample buffer. For immunoprecipitation analyses, lysates were incubated with appropriate antibodies at 4° C. with gentle rocking for 3 h after which immunocomplexes were incubated with Protein G-conjugated agarose beads (UBPBio, USA) at 4° C. with gentle rocking for 3 h. Finally, the beads were washed with TNTE wash buffer (0.1% [v/v] Triton-X-100) and boiled for 5 minutes at 95° C. in dithiothreitol (DTT) containing Laemmli sample buffer. Immunoprecipitates and input lysates were then resolved by sodium dodecyl sulfate-polyacrylamide electrophoresis (SDS-PAGE) and transferred onto a nitrocellulose membrane (Bio-Rad Laboratories, Canada). […] Densitometric analyses were performed using Quantity One software (Bio-Rad Laboratories, Canada).

[3] = system: MDA-MB-231 cell-derived organoids; assay: Three-dimensional Matrigel culture, proportion of spherical vs invasive organoids; format: cell-based, human
Method: For three-dimensional culture assays, 50 μl of ice-cooled 33% growth factor-reduced Matrigel (Corning Incorporated, USA) in complete growth medium, consisting of DMEM containing 10% FBS, penicillin, streptomycin and amphotericin B (Invitrogen, Canada), was added per well of a 96-well flat bottom, ultra-low attachment plate (BD Biosciences, Canada) followed by storing the plate for 1 hour in a 5% CO2 humidified incubator at 37° C. to allow formation of a 1 mm-thick Matrigel bed in the well. Next, approximately 400 isolated MDA-MB-231 cells, suspended in 50 μl ice-cooled 50% Matrigel in complete growth medium, were layered on top of the Matrigel bed per well of the 96-well plate and incubated inside 5% CO2 humidified incubator at 37° C. One hour post addition and 37° C. incubation of Matrigel-cells suspension, 50 μl of complete growth medium was added to cover the solidified Matrigel-cells mixture. The following day and, every third day, the three-dimensional cultures received 50 μl of fresh complete growth medium without or with specified reagents as listed in the figure descriptions. On Day 8 of culture, differential interference contrast (DIC) images were captured of 8 representative organoids from each well, using light microscopy at 30× objective (Olympus IX70, Canada). […] Number of smooth surfaced organoids without any protrusions, designated as “spherical” were counted out of eight representative images in each well and then percentage of spherical organoids in each condition were plotted in bar graphs. Each experiment was performed at least three independent times for statistical analyses.

[4] = system: colon cancer; assay: Treatment of a human with colon cancer, systemic administration; format: in vivo; conditions: 500 mg rhPRG4 via central venous catheter, once weekly for four weeks
Method: An 80 kg human diagnosed with colon cancer is administered recombinant human PRG4 (rhPRG4) by systemic administration via a central venous catheter. A total amount of 500 mg of rhPRG4 in 250 mL of physiological saline at a concentration of 2.0 mg/mL of lubricin is administered to create a blood concentration of approximately 100 μg/mL. The dose is administered once weekly for four weeks.

[5] = system: HLE and HLF cells; assay: HCC cell adhesion assay on coated wells; format: cell-based, human; conditions: CD44-shRNA vs control-shRNA; 30 minutes
Text: Stable CD44 silencing: HLE and HLF cell lines were transduced with lentiviral particles carrying control non-targeting (V), or specific CD44-targeting shRNA sequences (A to D), and selected with puromycin dihydrochloride (Thermo Fisher Scientific) to obtain stable CD44 silencing, according to manufacturer instructions (OriGene Technologies, Inc., Rockville, Md. 20850, USA). Control-shRNA sequence (V) and CD44-shRNA sequence B were used in all the experiments involving CD44 downregulation.
Adhesion assay: Diluted in 100 μl of serum free DMEM medium (+0.5% BSA), 50,000 cells, were seeded onto uncoated, rhPRG4, or fibronectin (FN)-coated wells of a 96-well plate, and then incubated at 37° C., 5% CO2 for 30 minutes. An equal volume of 4% PFA (pH 7.2 in PBS) was added and the plates were immediately flicked for a few seconds to allow mixing. Thirty minutes later, the medium was removed and the adherent cells were stained with crystal violet for 10 min. After abundant washing with tap water and distilled water the stained cells were allowed to dry out, and then they were solubilized with 100 μl of 1% sodium dodecyl sulphate in water. Absorbance was read at 595 nm and proportionally related to the number of adhered cells.

Row | Substance | 3TP-Lux reporter activity, TGFβ alone [1] | protein abundance of HAS2, immunoblotting [2] | effect of TGFβ on LMWHA-induced invasive growth ([3]; 100 pM TGFβ with LMWHA) | invasive growth of organoids, stimulus alone ([3]; 100 pM TGFβ, LMWHA 10, 100 or 400 μg/mL, 8-day) | tumor size by CT scan after four weeks [4] | TGFβ-induced 3TP-Lux reporter activity ([1]; 100 μg/mL rhPRG4, overnight, 0.2% FBS) | cell adhesion to lubricin-coated wells [5] | TGFβ or LMWHA-induced invasive growth, vector control transfected cells ([3]; 100 pM TGFβ or 400 μg/mL LMWHA, 100 μg/mL rhPRG4) | TGFβ-induced invasive growth of organoids ([3]; 100 pM TGFβ, 8-day, rhPRG4 0.1, 10, 100 μg/mL, KI 10 μM, 4-MU 0.5 mM) | LMWHA-induced invasive growth of 4-MU-treated organoids ([3]; 0.5 mM 4-MU, 400 μg/mL LMWHA, 100 μg/mL rhPRG4) | LMWHA-induced invasive growth of organoids ([3]; LMWHA 10-400 μg/mL, 100 μg/mL rhPRG4, KI 10 μM) | TGFβ and LMWHA-induced invasive growth of organoids ([3]; LMWHA 100 or 400 μg/mL, 100 pM TGFβ, CD44 antibody 2.5 μg/mL, rhPRG4 100 μg/mL) | TGFβ-induced invasive growth, rhPRG4 applied to the Matrigel prior to culture ([3]; Matrigel mixed with 100 μg/mL rhPRG4, 100 pM TGFβ) | invasive growth promoted by overexpressed CD44/FLAG ([3]; absence or presence of TGFβ or LMWHA, 100 μg/mL rhPRG4)
1 | TGFβ: recombinant human mature transforming growth factor beta (R&D systems) [reference compound] | significant induction of 3TP-Lux reporter activity | increased the protein abundance of HAS2 | further enhanced the ability of LMWHA to induce invasive growth | promoted an invasive growth | – | – | – | – | – | – | – | – | – | –
2 | rhPRG4: full-length recombinant human PRG4 (lubricin) glycoprotein produced by CHO-M cells; residues 25-1404 of SEQ ID NO:1 | – | suppressed the protein abundance of HAS2 | – | – | decreased in size | did not alter TGFβ-induced 3TP-Lux reporter activity | impaired upon silencing of CD44 expression | significantly reversed | drastically repress TGFβ-induced invasiveness | suppressed LMWHA-induced invasive growth | suppressed the ability of LMWHA to promote the invasive growth | suppressed TGFβ and LMWHA-induced invasive growth | sufficient to suppress TGFβ-induced invasive growth | suppressed the ability of overexpressed CD44 to promote invasive growth
